In patent publication US9340506B2, “Acetamide derivatives as glucokinase activators, their process and medicinal applications” (ADVINUS THERAPEUTICS LIMITED, priority 2007, dated 2016):
pEC50: −log10 of the molar value.

Key:
[1] = animal efficacy models; PSN-GK1 at higher dose; cited from earlier work
[2] = target: purified human recombinant GK (Homo sapiens (Human), UniProt P35557); assay: Glucokinase activity assay (coupled enzymatic, G6PD/NADH absorbance at 340 nm); type: biochemical; settings: for pEC50: EC50 of % change in S0.5 of glucokinase for glucose, sigmoidal fit, read-out: EC50 (with respect to % ΔS0.5); for Emax: Emax of % change in S0.5 of glucokinase for glucose, vehicle S0.5 = 0%, 0 mM glucose = 100%, read-out: % Emax (with respect to % ΔS0.5)
Sequence of purified human recombinant GK (P35557 whole entry): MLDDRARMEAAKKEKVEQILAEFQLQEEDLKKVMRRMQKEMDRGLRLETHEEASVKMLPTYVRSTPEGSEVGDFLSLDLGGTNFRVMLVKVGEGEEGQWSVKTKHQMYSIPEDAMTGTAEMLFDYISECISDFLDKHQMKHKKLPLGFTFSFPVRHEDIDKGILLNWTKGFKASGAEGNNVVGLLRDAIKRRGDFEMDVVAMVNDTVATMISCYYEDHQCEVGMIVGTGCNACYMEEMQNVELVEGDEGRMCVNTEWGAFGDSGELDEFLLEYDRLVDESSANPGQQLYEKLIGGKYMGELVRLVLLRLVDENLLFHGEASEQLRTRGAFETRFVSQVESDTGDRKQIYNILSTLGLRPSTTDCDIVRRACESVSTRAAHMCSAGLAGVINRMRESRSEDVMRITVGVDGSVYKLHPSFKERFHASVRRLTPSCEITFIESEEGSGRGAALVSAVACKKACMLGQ
Excerpt: The glucokinase (GK) assay is a coupled enzymatic assay. GK catalyzes the first step of glycolysis, the conversion of glucose to glucose-6-phosphate (G6P) in the presence of ATP. G6P in turn is converted by glucose-6-phosphate dehydrogenase (G6PD) to 6-phosphogluconate, a process that requires NAD, resulting in NADH formation. Since the GK-catalyzed step is the rate-limiting step of this coupled enzymatic process, the rate of accumulation of 6-phosphogluconate and NADH is directly proportional to the rate of glucose phosphorylation by GK. The rate of the GK-catalyzed reaction can therefore be measured by monitoring the increase in NADH absorbance at 340 nm.
The assay is carried out according to the protocol outlined in Hariharan et al (1997), Diabetes 46: 11-16. Briefly, the test compounds are incubated in a reaction mix containing 25 mM HEPES (pH 7.2), 10 mM MgCl2, 100 mM KCl, 5 mM ATP, 2 mM DTT, 0.5 mM NAD, 1 U/mL Leuconostoc mesenteroides G6PD, 0.3 U/mL of purified human recombinant GK, and different concentrations of glucose. Enzymatic activity is calculated from the initial reaction velocity, measured from the change in NADH absorbance as a function of time.
Compounds described in formula (I), in concentration ranges from 1.0 nM to 500 μM, are tested in the purified human recombinant glucokinase assay described above.
A compound is considered to be a glucokinase activator if it, in its testable range of concentrations, yields a higher rate of glucose phosphorylation than in its absence at a particular glucose concentration, for example at 5 mM glucose.
Compounds of general formula (I) are tested in the in vitro GK enzymatic assay to monitor dose-dependent effect on glucokinase activation (in kinetic mode), as described above, at various glucose concentrations. The S0.5 of glucokinase for glucose at different concentration of each compound of interest is calculated from the following modified version of the Michaelis-Menten equation, V=Vmax [S]^n/(S0.5^n+[S]^n), where [S] is the glucose concentration and n is the Hill coefficient (taken as 1.7 to account for the sigoidal kinetics of glucokinase with respect to glucose). The S0.5 is plotted against the log of the compound concentration. The change in the S0.5 of glucokinase (ΔS0.5) for glucose is calculated by subtracting the S0.5 at each concentration of the compound from the S0.5 in the vehicle control. The ΔS0.5 is then normalized to a percent scale, where the S0.5 in the vehicle control is set to 0% and 0 mM glucose is set to 100%. The % ΔS0.5 is then plotted against the log of the compound concentration. The EC50 and Emax of % change in S0.5 is obtained from the sigoidal fit of the data. Detailed protocol has been described in our copending application no. 409/CHE/2007 which is incorporated herein by reference. Characterization data of some representative glucokinase activators of the present disclosure, which are illustrative but not limiting, are given in table I below.

[3] = tested on: primary rat hepatocytes; assay: Glycogen synthesis in primary rat hepatocytes; type: cell-based; settings: Hepatocyte, 10 μM concentration, primary hepatocytes from male Wistar rats, D-[U14C]-glucose, 3 hours, read-out: Glycogen synthesis, fold increase over DMSO control
Experimental: The glycogen deposition assay was carried out with few modifications in the original protocol as described in “Biochem J. 1990 Feb. 15; 266(1): 91-102”. In brief, primary hepatocytes were collected from male Wistar rats, and were seeded in a 48-well plate at a density of 150,000 cells/well in Minimal Essential Medium (MEM) containing 10% foetal calf serum (FCS) 100 nM insulin and 10 nM dexamethasone. followed by incubation for 4 hours at 37° C. The medium was replaced with fresh MEM containing 10% FCS and 10 nM dexamethasone and the cells were further incubated for 16 hours at 37° C. Following day, the medium was replaced with fresh MEM (serum-free) containing 2 μCi/ml of D-[U^14C]-glucose in the presence of the test compound. Hepatocytes were incubated for 3 hours at 37° C. followed by washing with 150 mM NaCl. Cells were lysed with 0.1 N NaOH, and the lysate was precipitated with 80% w/v trichloroacetic acid (TCA). Cell debris was pelleted by centrifugation, the supernatant was removed, and the glycogen was precipitated with 66% ethanol followed by drying overnight. Samples were dissolved in MiliQ water and transferred to 96 well reading plate, 100 μL scintillant was added per well and the plate was read in scintillation counter (MicroBeta Trilux, Perkin Elmer). Data was expressed as fold increase in glycogen synthesis over DMSO control (untreated hepatocytes).

Molecule | Hypoglycemia in animal studies [1] | pEC50 [2] | Emax [2] [%] | fold induction at 10 µM [3]
Ro-28-1675 | cause hypoglycemia |  |  | 
O=C(O)c1cccc(Oc2cnc(NC(=O)C(OC3CCOCC3)c3ccc(S(=O)(=O)C4CCCC4)cc3)s2)c1 (single isomer, unassigned; (+)) [Example G26A, (+)-3-[2-[[2-(4-cyclopentylsulfonylphenyl)-2-tetrahydropyran-4-yloxy-acetyl]amino]thiazol-5-yl]oxybenzoic acid] |  | 6.74 | 94 | > 2.5
O=C(O)c1cccc(Oc2cnc(NC(=O)C(O[C@H]3CCOC3)c3ccc(S(=O)(=O)C4CC4)cc3)s2)c1 (single isomer, unassigned; (+)) [Example G25A] |  | 6.70 | 95 | > 2.5
O=C(O)c1cc(Oc2cnc(NC(=O)C(OC3CCOCC3)c3ccc(S(=O)(=O)C4CC4)cc3)s2)ccc1F (single isomer, unassigned; (+)) [Example G16A, (+)5-[2-[[2-(4-cyclopropylsulfonylphenyl)-2-tetrahydropyran-4-yloxy-acetyl]amino]thiazol-5-yl]oxy-2-fluoro-benzoic acid] |  | 6.57 | 93 | > 2.5
O=C(O)c1ccc(NC(=O)C(Oc2ccc(F)cc2F)c2ccc(S(=O)(=O)C3CC3)cc2)nc1 (single isomer, unassigned; (-)) [Example G15A, (−)6-[[2-(4-cyclopropylsulfonylphenyl)-2-(2,4-difluorophenoxy)acetyl]amino]pyridine-3-carboxylic acid] |  | 6.32 | 90 | > 2.5
O=C(Nc1ncc(F)s1)[C@H](CC1CCOCC1)c1ccc(S(=O)(=O)C2CC2)cc1 [PSN-GK1] | hypoglycemic potential |  |  | 
Cc1ccc(Oc2cnc(NC(=O)C(OC3CCOCC3)c3ccc(S(=O)(=O)C4CC4)cc3)s2)cc1C(=O)O (single isomer, unassigned; (+)) [Example G10A, (+)5-[2-[[2-(4-cyclopropylsulfonylphenyl)-2-tetrahydropyran-4-yloxy-acetyl]amino]thiazol-5-yl]oxy-2-methyl-benzoic acid] |  | 6.64 | 93 | > 2.5
